Bounds are passed on as bounds.

In this assay the target is T1, rat prostate androgen receptor (Rattus norvegicus, UniProt P15207).
T1 construct: the supernatant was obtained as cytoplasm fraction; from tissue; host or cells: cytosol (105000×g supernatant) of rat ventral prostate, 24 hours after castration
T1 sequence (P15207 1-902): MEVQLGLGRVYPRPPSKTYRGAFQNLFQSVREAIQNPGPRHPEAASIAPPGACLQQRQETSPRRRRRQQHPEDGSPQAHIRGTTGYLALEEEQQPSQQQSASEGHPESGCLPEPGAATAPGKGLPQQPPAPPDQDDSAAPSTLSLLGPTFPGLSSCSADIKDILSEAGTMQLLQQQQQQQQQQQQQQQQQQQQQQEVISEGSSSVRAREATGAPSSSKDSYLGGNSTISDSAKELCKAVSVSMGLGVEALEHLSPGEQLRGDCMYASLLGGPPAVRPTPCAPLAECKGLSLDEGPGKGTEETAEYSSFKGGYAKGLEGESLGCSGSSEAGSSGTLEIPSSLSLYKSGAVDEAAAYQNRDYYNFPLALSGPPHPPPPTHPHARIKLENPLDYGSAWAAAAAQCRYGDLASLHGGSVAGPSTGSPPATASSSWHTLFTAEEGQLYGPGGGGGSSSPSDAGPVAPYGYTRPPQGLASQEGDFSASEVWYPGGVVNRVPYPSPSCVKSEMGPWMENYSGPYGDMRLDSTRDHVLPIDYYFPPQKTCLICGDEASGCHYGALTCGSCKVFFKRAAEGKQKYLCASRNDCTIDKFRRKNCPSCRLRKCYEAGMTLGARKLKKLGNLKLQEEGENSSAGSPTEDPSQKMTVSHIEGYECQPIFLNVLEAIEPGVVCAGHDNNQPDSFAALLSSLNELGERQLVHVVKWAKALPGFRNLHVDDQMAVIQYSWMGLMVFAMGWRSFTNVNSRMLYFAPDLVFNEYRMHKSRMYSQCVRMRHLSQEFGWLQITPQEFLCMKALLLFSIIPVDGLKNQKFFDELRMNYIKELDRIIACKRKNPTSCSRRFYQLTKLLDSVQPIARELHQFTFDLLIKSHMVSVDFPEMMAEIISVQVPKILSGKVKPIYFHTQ
The assay is described as follows: inhibitory activity on binding of ^3 H-mibolerone on rat prostate androgen receptor. To be noted: ^3 H-mibolerone 1 nM, triamcinolone acetonide 5 μM, rat ventral prostate cytosol, 20 hours at 0° C.; read-out: Inhibitory activity on mibolerone specific binding [IC50 (M)].
Method: B. Measurement of inhibitory activity on binding of ^3 H-mibolerone on rat prostate androgen receptor
(1) Preparation of cytosol from rat prostate
The rat was sacrificed 24 hours after castration, and the ventral lobe of prostate was removed, and was gently homogenized, in ice-cooling water bath, at first by using Polytron and then using Potter type homogenizer, in three-fold amount of buffer solution A (1.5 mM EDTA, 2 mM dithiothreitol, 10 mM molybdate sodium, 10 % by volume of glycerol, 10 mM NaF, 25 mM phosphate sodium, pH 7.2). The obtained homogenate was filtrated through double gauze, and centrifuged at 105000×g for 60 minutes at 4° C., and the supernatant was obtained as cytoplasm fraction.
(2) Measurement of specific binding of ^3 H-mibolerone on prostate cytoplasm androgen receptor
To the cytoplasm fraction obtained in (1), ^3 H-mibolerone (87.0 Ci/mmol) was added, so that a final concentration is adjusted to 1 nM, and at the same time, in order to inhibit binding of ^3 H-mibolerone to progestin receptor, triamsinolone acetonide was added to a final concentration of 5 μM, and the final volume was adjusted to 0.4 ml with buffer solution A, and the reaction mixture was incubated for 20 hours at 0° C. After incubation, 0.5 ml of 60% hydroxylapatite slurry (washed and equilibrate with a buffer solution B: 10 mM NaH2 P04, 20 mM tris-hydrochloric acid, pH 7.2) was added, and incubated for 10 minutes at 0° C., the solution was transferred onto a glass fiber filter, and washed five times with 5 ml portions of buffer solution B containing 0.1% (weight/volume) of Triton X-100, to remove free ^3 H-mibolerone. This glass fiber was transferred into vial, and 10 ml of aquasol-2 was added, and the radioactivity was measured, and the total binding amount of ^3 H-mibolerone on prostate cytoplasm androgen receptor was determined.
The nonspecific binding amount was determined similarly by adding an unlabeled 5α-DHT in the reaction solution to a final concentration of 1 μM. The difference between the total binding amount and nonspecific binding amount was determined as the specific binding amount on the androgen receptor.
(3) Inhibitory activity of sample compounds on ^3 H-mibolerone specific binding
The compounds obtained in the experiments were added simultaneously with ^3 H-mibolerone at different concentrations to incubate same as in (2), and the specific binding amount of 3H-mibolerone on androgen receptor was determined. Comparing this value with the value obtained in (2), the IC50 value of inhibitory activity of the compounds on ^3 H-mibolerone specific binding was determined.
In general, IC50 refers to the concentration that inhibits the measured activity by half. In the case of `N#Cc1cnc2c(-c3ccc(Sc4ccccc4)cc3)cnn2c1O` [Example 47, 7-Hydroxy-6-cyano-3,(4-phenylthiophenyl)pyrazolo[1,5-a]pyrimidine], the IC50 stood at 5e-08 M.
For `Oc1c(CCc2ccccc2)cnc2c(-c3ccc(Sc4ccccc4)cc3)cnn12` [Example 28, 7-Hydroxy-6-phenethyl-3-(4-phenylthiophenyl)pyrazolo[1,5-a]pyrimidine] the value was greater than 5e-06 M; for “7-Hydroxy-6-ethoxycarbonylmethyl-3-(4-phenylthiophenyl)pyrazolo[1,5-a]pyrimidine [Example 34]”, 2.9e-07 M; for `Oc1c(-c2ccccc2F)cnc2c(-c3ccc(Sc4ccccc4)cc3)cnn12` [Example 57, 7-Hydroxy-6-(2-fluorophenyl)-3-(4-phenylthiophenyl)pyrazolo[1,5-a]pyrimidine], 1.45e-07 M.
For `O=C(O)CCc1cnc2c(-c3ccc(Sc4ccccc4)cc3)cnn2c1O` [Example 39, 7-Hydroxy-6-carboxyethyl-3-(4-phenylthiophenyl)pyrazolo[1,5-a]pyrimidine] the value was 1.3e-07 M.
For `COc1ccc(-c2cnc3c(-c4ccc(Sc5ccccc5)cc4)cnn3c2O)cc1Br` [Example 73, 6-(3-bromo-4-methoxyphenyl)-7-hydroxy-3-(4-phenylthiophenyl)pyrazolo[1,5-a]pyrimidine] the value was greater than 5e-06 M; for `Cc1nc2c(-c3ccc(Sc4ccccc4)cc3)cnn2c(O)c1Cl` [Example 37, 7-hydroxy-6-chloro-5-methyl-3-(4-phenylthiophenyl)pyrazolo[1,5-a]pyrimidine], 5.8e-07 M.
On to `O=C(Nc1cc(Cl)c(Cl)c(Cl)c1)c1cnc2c(-c3ccc(Sc4ccccc4)cc3)cnn2c1O` [Example 45, 7-Hydroxy-3-(4-phenylthiophenyl)-6-(N-3,4,5-trichlorophenyl)carbamoylpyrazolo[1,5-a]pyrimidine], for which the half-inhibitory concentration (IC50) was 4e-07 M.
With `O=C(Nc1ccccc1)c1cnc2c(-c3ccc(Sc4ccccc4)cc3)cnn2c1O` [Example 42, 7-Hydroxy-6-(N-phenylcarbamoyl)-3-(4-phenylthiophenyl)pyrazolo[1,5-a]pyrimidine] the figure was 3e-06 M; with `Cc1ccc(-c2cnc3c(-c4ccc(Sc5ccccc5)cc4)cnn3c2O)cc1` [Example 51, 7-Hydroxy-6-(4-methylphenyl)-3-(4-phenylthiophenyl)pyrazolo[1,5-a]pyrimidin], 3.4e-07 M.
For `COc1cc(-c2cnn3c(O)c(C(N)=O)cnc23)ccc1Sc1ccccc1` [Example 44, 6-Carbamoyl-7-hydroxy-3-(3-methoxy-4-phenylthiophenyl)pyrazolo[1,5-a]pyrimidine] the value was 7.7e-08 M; for `Oc1c(C(O)C(F)(F)F)cnc2c(-c3ccc(Sc4ccccc4)cc3)cnn12` (stereo not shown) [Example 72, 7-Hydroxy-6-(1-hydroxy-2,2,2-trifluoroethyl)-3-(4-phenylthiophenyl)pyrazolo[1,5-a]pyrimidine], 1.6e-07 M.
With `COc1cnc2c(-c3ccc(Sc4ccccc4)cc3)cnn2c1O` [Example 21, 7-Hydroxy-6-methoxy-3-(4-phenylthiophenyl)pyrazolo[1,5-a]pyrimidine] the figure was 1.65e-07 M; with `CCc1cc(O)n2ncc(-c3ccc(Sc4ccccc4)cc3)c2n1` [Example 6, 7-Hydroxy-5-ethyl-3-(4-phenylthiophenyl)pyrazolo[1,5-a]pyrimidine], 9e-07 M.
On to `COc1cccc(-c2cnc3c(-c4ccc(Sc5ccccc5)cc4)cnn3c2O)c1` [Example 54, 7-Hydroxy-6-(3-methoxyphenyl)-3-(4-phenylthiophenyl)pyrazolo[1,5-a]pyrimidine], for which the IC50 came out at 7.6e-07 M.
For `Oc1c(F)cnc2c(-c3ccc(Sc4ccccc4)cc3)cnn12` [Example 22] the value was 5.2e-08 M.
With `Cc1nn2c(O)ccnc2c1-c1ccc(Sc2ccccc2)cc1` [Example 18, 7-Hydroxy-2-methyl-3-(4-phenylthiophenyl)pyrazolo[1,5-a]pyrimidine] the figure was 1.2e-06 M.
With `Oc1c(C(O)c2ccccc2)cnc2c(-c3ccc(Sc4ccccc4)cc3)cnn12` (stereo not drawn) [Example 71, 7-Hydroxy-6-(α-hydroxybenzyl)-3-(4-phenylthiophenyl)pyrazolo[1,5-a]pyrimidine] the figure was 4.6e-07 M; with `CC(O)c1cnc2c(-c3ccc(Sc4ccccc4)cc3)cnn2c1O` (stereo not shown) [Example 70, 7-Hydroxy-6-(1-hydroxyethyl)-3-(4-phenylthiophenyl)pyrazolo[1,5-a]pyrimidine], 1.55e-07 M; with `Oc1cc(C(F)(F)F)nc2c(-c3ccc(Sc4ccccc4)cc3)cnn12` [Example 13, 7-Hydroxy-5-trifluoromethyl-3-(4-phenylthiophenyl)pyrazolo[1,5-a]pyrimidine], 2e-06 M.
`COCc1nn2c(O)ccnc2c1-c1ccc(Sc2ccccc2)cc1` [Example 19, 7-Hydroxy-2-methoxymethyl-3-(4-phenylthiophenyl)pyrazolo[1,5-a]pyrimidine]: the IC50 is greater than 5e-06 M.
On to `Oc1c(Cl)cnc2c(-c3ccc(Sc4ccccc4)cc3)cnn12` [Example 36, 7-Hydroxy-6-chloro-3-(4-phenylthiophenyl)pyrazolo[1,5-a]pyrimidine], for which the half-maximal inhibitory concentration (IC50) stood at 1.3e-07 M.
With `Oc1c(-c2ccc(F)cc2)cnc2c(-c3ccc(Sc4ccccc4)cc3)cnn12` [Example 55, 7-Hydroxy, 6-(4-fluorophenyl)-3-(4-phenylthiophenyl)pyrazolo[1,5-a]pyrimidine] the figure was 6.6e-08 M; with `Oc1c2c(nc3c(-c4ccc(Sc5ccccc5)cc4)cnn13)CCC2` [Example 11, 5H-6,7-Dihydro-8-hydroxy-3-(4-phenylthiophenyl)cyclopenta[d]pyrazolo[1,5-a]pyrimidine], 4.2e-07 M.
With `Oc1c(-c2ccccc2)cnc2c(-c3ccc(Sc4ccccc4)cc3)cnn12` [Example 23, 7-Hydroxy-6-phenyl-3-(4-phenylthiophenyl)pyrazolo[1,5-a]pyrimidine] the figure was 5.8e-08 M.
Consider `CCOC(=O)Cc1cnc2c(-c3ccc(Sc4ccccc4)cc3)cnn2c1O` [Example 33, 7-Hydroxy-6-ethoxycarbonylmethyl-3-(4-phenylthiophenyl)pyrazolo[1,5-a]pyrimidine], for which the IC50 worked out at 2.8e-07 M.
For `O=C(c1cnc2c(-c3ccc(Sc4ccccc4)cc3)cnn2c1O)C(F)(F)F` [Example 69, 7-Hydroxy-6-trifluoroacetyl-3-(4-phenylthiophenyl)pyrazolo[1,5-a]pyrimidine] the value was 8.8e-07 M; for `CCc1cnc2c(-c3ccc(Sc4ccccc4)cc3)cnn2c1O` [Example 25, 7-Hydroxy-6-ethyl-3-(4-phenylthiophenyl)pyrazolo[1,5-a]pyrimidine], 1.6e-07 M; for `OCCc1cnc2c(-c3ccc(Sc4ccccc4)cc3)cnn2c1O` [Example 60, 7-Hydroxy-6-(2-hydroxyethyl)-3-(4-phenylthiophenyl)pyrazolo[1,5-a]pyrimidine], 3.9e-08 M.
With `CC(=O)c1cnc2c(-c3ccc(Sc4ccccc4)cc3)cnn2c1O` [Example 67, 7-Hydroxy-6-acetyl-3-(4-phenylthiophenyl)pyrazolo[1,5-a]pyrimidine] the figure was 3.4e-08 M; with `CC(=O)OCCc1cnc2c(-c3ccc(Sc4ccccc4)cc3)cnn2c1O` [Example 59, 6-(2-Acetoxyethyl)-7-hydroxy-3-(4-phenylthiophenyl)pyrazolo[1,5-a]pyrimidine], 1.65e-07 M.
